Data: US5292734A, “Angiotensin II receptor blocking 2,3,6 substituted quinazolinones” (American Cyanamid Company, priority 1993, dated 1994)

Biological target: T1, Angiotensin II Receptor (Bos taurus, UniProt P25104)
T1 construct: The brownish tissue forming the adrenal cortex is scraped off and finely minced with scissors before homogenization; from tissue; host or cells: beef adrenal cortex, microsomal membranes (100,000 x g pellet)
T1 sequence (P25104 1-359): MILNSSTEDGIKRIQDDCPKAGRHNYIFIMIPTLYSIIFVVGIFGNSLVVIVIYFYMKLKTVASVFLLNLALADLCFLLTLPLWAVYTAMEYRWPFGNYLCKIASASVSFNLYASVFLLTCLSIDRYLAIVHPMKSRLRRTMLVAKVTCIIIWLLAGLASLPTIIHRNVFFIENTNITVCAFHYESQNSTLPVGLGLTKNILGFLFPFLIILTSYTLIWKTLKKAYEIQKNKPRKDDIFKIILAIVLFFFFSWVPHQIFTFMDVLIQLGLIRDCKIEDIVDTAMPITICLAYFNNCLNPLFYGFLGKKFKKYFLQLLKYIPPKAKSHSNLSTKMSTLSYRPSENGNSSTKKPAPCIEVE
Assay: Receptor binding assay: binding of [^125 I](Sar^1,Ile^8)AngII
Conditions: beef adrenal cortex membranes, 60 min, room temperature
From the text: Beef adrenals are obtained from a local slaughter house (Maxwell-Cohen). [^125 I](Sar^1,Ile^8)AngII, S. A. 2200 Ci/mmole, is purchased from Dupont (NEN®, Boston, Mass.). All unlabeled AngII analogs, Dimethylsulfoxide (DMSO), nucleotides, bovine serum albumin (BSA) are purchased from Sigma Chemical Co., St. Louis, Mo. U.S.A.
Approximately sixteen (16) to twenty (20) beef adrenal glands are processed as follows: fresh adrenal glands received on crushed ice are cleaned of fatty tissues and the tough membranes encapsulating the glands are removed and discarded. […] A 100 ul aliquot is withdrawn and the protein content of the preparation is determined by the Lowry's method (Lowry, O. H., Rosebrough, N. P., Farr, A. L. and Randall, R. J., Protein measurement with Polin phenol reagent. J. Biol. Chem., […], 265-275, 1951). […]
The binding of [^125 I](Sar^1 Ile^8)AngII to microsomal membranes is initiated by the addition of reconstituted membranes (1:10 vols.) in freshly made 50.0 mM Tris.HCl buffer, pH 7.4 containing 0.25% heat inactivated bovine serum albumin (BSA): 80 ul membrane protein (10 to 20 ug/assay) to wells already containing 100 ul of incubation buffer (as described above) and 20 ul [^125 I](Sar^1 Ile^8)AngII (Specific Activity, 2200 Ci/mmole). Non-specific binding is measured in the presence of 1.0 uM unlabeled (Sar^1,Ile^8)AngII, added in 20 ul volume. […]

`CCCCc1nc2ccc(C(O)CC3CCCN3)cc2c(=O)n1Cc1ccc(-c2ccccc2-c2nnn[nH]2)cc1` (racemic) [Example 80, CIS-(+/-)-2-Butyl-6-[1-hydroxy-2-(2-pyrrolidinyl)ethyl]-3-[[2'-(1H-tetrazol-5-yl)[1,1'-biphenyl]-4-yl]methyl] -4(3H)-quinazolinone] was tested, and the IC50 was 41 nM.
